Key:
Format in all cases: cell-based
[1] = test system: IL-6 (THP-1 cells); assay: IL-6 inhibition in LPS-stimulated THP-1 cells (HTRF); conditions: Homo sapiens; for EC50: IL6 by HTRF, THP-1 cells, 500 ng/mL LPS, 22 hours; for inhibition at 10 µM: THP-1, read-out: percent inhibition at 10 M
Method in brief: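 THP-1 cells, pre-cultured 24 h in 1% FBS medium, treated with compound 2 h at 37 °C, then stimulated with 500 ng/mL LPS for 22 h. Secreted IL-6 measured by HTRF as the 665/620 nm ratio. Values normalized to DMSO; EC50 from four-parameter fit, duplicates.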

[2] = test system: SW480 colon cancer cells; assay: Cell viability assay (CellTiter-Blue); conditions: Homo sapiens; for EC50: 96 h, SW480 cell viability, four days, CellTiter-Blue; for inhibition at 10 µM: SW480, 96 h, read-out: percent inhibition at 10 μM
Method in brief: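 Fluorescence from resazurin reduced to resorufin by metabolically active cells was the read-out, taken after ~3 h with CellTiter-Blue.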

[3] = test system: primary human mesenchymal stem cells (hMSCs); assay: Induction of chondrogenesis in hMSCs (Rhodamine B / Nile Red nodule imaging); conditions: for EC50: concentration required to induce 50% levels of chondrogenesis vs TGF-β3 positive control, read-out: Conc (nM) of 50% TGF-β3 activity; for Emax: maximum activity relative to TGF-β3 (10 ng/mL) positive control, read-out: Max. Activity as % TGF-β3 activity
Source text: Representative compounds were screened using primary human mesenchymal stem cells (hMSCs) to determine their ability to induce chondrogenesis (process by which cartilage is developed).
Primary human mesenchymal stem cells (hMSCs) were purchased from Lonza (Walkersville, Md.) and expanded in Mesenchymal Stem Cell Growth Media (Lonza). Cells between passage 3 and 6 were used for the experiments.
Area of nodules in each well was normalized to the average of 3 DMSO treated wells on the same plate using Excel (Microsoft Inc.). The normalized averages (fold change over DMSO) of 2 or 3 replicate wells for each compound concentration were calculated. Due to solubility limitations of some of the compounds, curve fitting was incomplete leading to inaccurate EC50 determinations.
Using TGF-β3 as a positive control, the concentration of representative compounds required to induce 50% levels of chondrogenesis is reported. In addition, the maximum activity of each compound and the respective dose that each compound reached maximum chondrogenesis activity is reported.

[4] = test system: primary human fibroblasts derived from IPF patients (LL29 cells) treated with TGF-β1; assay: Inhibition of the fibrotic process (αSMA staining) in TGF-β1-treated fibroblasts; conditions: Fibroblast, 96 h; for EC50: % αSMA-positive LL29 cells, TGF-β1 20 ng/mL, 4 days
Method in brief: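 LL29 fibroblasts from IPF patients, 1,500 cells/well in F12 with 1% FBS, stimulated with TGF-β1; TGF-β1 plus DMSO wells as controls. Incubation 4 days, then SYTOX green 1 μM final for 30 min at room temperature. Fibrotic response read as αSMA staining.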

[5] = test system: Wnt activity (Sp5-Luc reporter, SW480 colon carcinoma cells); assay: Screening assay for Wnt activity (Sp5-Luc reporter gene assay in SW480 cells); conditions: Homo sapiens; for EC50: Sp5-Luc reporter, SW480 cells, incubated overnight; for inhibition at 10 µM: SW480, read-out: percent inhibition at 10 μM
Method in brief: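 SW480 colon carcinoma cells stably carrying Sp5 promoter (eight TCF/LEF sites)-driven firefly luciferase, plated at 4,000 cells/well in 1% FBS medium and incubated overnight at 37° C. Luminescence normalised to DMSO-only cells; EC50 from four-parameter variable-slope nonlinear regression.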

Structure (SMILES) | EC50 [1] [nM] | EC50 [2] [nM] | EC50 [3] [nM] | EC50 [5] [nM] | Emax [3] [%] | EC50 [4] [nM] | inhibition at 10 µM [2] [%] | inhibition at 10 µM ([4]; read-out: percent inhibition at 10 μM) [%] | inhibition at 10 µM [5] [%] | inhibition at 10 µM [1] [%]
CC(C)C(=O)Nc1cncc(-c2ccc3[nH]nc(-c4cc5c(-c6ccccc6F)nccc5[nH]4)c3c2)c1 [Compound 65, N-(5-(3-(4-(2-Fluorophenyl)-1H-pyrrolo[3,2-c]pyridin-2-yl)-1H-indazol-5-yl)pyridin-3-yl)isobutyramide] | 73 | 221 | 2700 | 170 | 108 | 98 |  |  |  | 
Fc1ccccc1-c1nccc2[nH]c(-c3n[nH]c4ccc(-c5cncc(CN6CCCCC6)c5)cc34)cc12 [Compound 71, 3-(4-(2-Fluorophenyl)-1H-pyrrolo[3,2-c]pyridin-2-yl)-5-(5-(piperidin-1-ylmethyl)pyridin-3-yl)-1H-indazole] | 1090 | 1000 |  | 2800 | 16 | 1940 |  |  |  | 
CCCCC(=O)Nc1cncc(-c2ccc3[nH]nc(-c4cc5c(-c6ccccc6F)nccc5[nH]4)c3c2)c1 [Compound 75, N-(5-(3-(4-(2-Fluorophenyl)-1H-pyrrolo[3,2-c]pyridin-2-yl)-1H-indazol-5-yl)pyridin-3-yl)pentanamide] | 39 | 221 | 2700 | 345 | 76 | 254 |  |  |  | 
Fc1ccccc1-c1nccc2[nH]c(-c3n[nH]c4ccc(-c5cncc(CN6CCC(F)(F)C6)c5)cc34)cc12 [Compound 82, 5-(5-((3,3-Difluoropyrrolidin-1-yl)methyl)pyridin-3-yl)-3-(4-(2-fluorophenyl)-1H-pyrrolo[3,2-c]pyridin-2-yl)-1H-indazole] | 181 | 821 | 2700 | 233 | 172 | 221 |  |  |  | 
Nc1cncc(-c2ccc3[nH]nc(-c4cc5c(-c6ccncc6)nccc5[nH]4)c3c2)c1 [Compound 115, 5-(3-(4-(Pyridin-4-yl)-1H-pyrrolo[3,2-c]pyridin-2-yl)-1H-indazol-5-yl)pyridin-3-amine] | > 10000 | 3790 | 100 | 658 | 77 | 1390 |  |  |  | 29
O=C(Nc1cncc(-c2ccc3[nH]nc(-c4cc5c(-c6ccncc6)nccc5[nH]4)c3c2)c1)C1CCCC1 [Compound 134, N-(5-(3-(4-(Pyridin-4-yl)-1H-pyrrolo[3,2-c]pyridin-2-yl)-1H-indazol-5-yl)pyridin-3-yl)cyclopentanecarboxamide] | 9740 | > 10000 | 30 | > 10000 | 114 | 2440 | 4.2 |  | 20.6 | 
c1cncc(-c2ccc3[nH]nc(-c4cc5c(N6CCCCC6)nccc5[nH]4)c3c2)c1 [Compound 172, 3-(4-(Piperidin-1-yl)-1H-pyrrolo[3,2-c]pyridin-2-yl)-5-(pyridin-3-yl)-1H-indazole] | 189 | 844 | 10 | 480 | 172 | 1050 |  |  |  | 
CC(C)(C)C(=O)Nc1cncc(-c2ccc3[nH]nc(-c4cc5c(N6CCCCC6)nccc5[nH]4)c3c2)c1 [Compound 176, N-(5-(3-(4-(Piperidin-1-yl)-1H-pyrrolo[3,2-c]pyridin-2-yl)-1H-indazol-5-yl)pyridin-3-yl)pivalamide] | 350 | 1350 |  | 1320 | 35 | 650 |  |  |  | 
O=C(Cc1ccccc1)Nc1cncc(-c2ccc3[nH]nc(-c4cc5c(N6CCCCC6)nccc5[nH]4)c3c2)c1 [Compound 178, 2-Phenyl-N-(5-(3-(4-(piperidin-1-yl)-1H-pyrrolo[3,2-c]pyridin-2-yl)-1H-indazol-5-yl)pyridin-3-yl)acetamide] | 1520 | 2870 | 900 | 2350 | 73 | 505 |  |  |  | 
CN(C)Cc1cncc(-c2ccc3[nH]nc(-c4cc5c(N6CCCCC6)nccc5[nH]4)c3c2)c1 [Compound 181, N,N-Dimethyl-1-(5-(3-(4-(piperidin-1-yl)-1H-pyrrolo[3,2-c]pyridin-2-yl)-1H-indazol-5-yl)pyridin-3-yl)methanamine] | > 10000 | 1940 | 10 | 4710 | 220 | 3320 |  |  |  | 22.5
c1cc2[nH]c(-c3n[nH]c4ccc(-c5cncc(CN6CCCCC6)c5)cc34)cc2c(N2CCCCC2)n1 [Compound 183, 3-(4-(Piperidin-1-yl)-1H-pyrrolo[3,2-c]pyridin-2-yl)-5-(5-(piperidin-1-ylmethyl)pyridin-3-yl)-1H-indazole] | 9310 | 3810 |  | 4210 | 48 | 3280 |  |  |  | 

Continued by falling EC50 [1], values first:

EC50 [1] [nM] | EC50 [2] [nM] | EC50 [3] [nM] | EC50 [5] [nM] | Structure (SMILES) | Emax [3] [%] | EC50 [4] [nM] | inhibition at 10 µM [2] [%] | inhibition at 10 µM ([4]; read-out: percent inhibition at 10 μM) [%] | inhibition at 10 µM [5] [%] | inhibition at 10 µM [1] [%]
1020 | > 10000 | 30 | > 10000 | CC(C)CC(=O)Nc1cncc(-c2ccc3[nH]nc(-c4cc5c(-c6ccncc6)nccc5[nH]4)c3c2)c1 [Compound 114, 3-Methyl-N-(5-(3-(4-(pyridin-4-yl)-1H-pyrrolo[3,2-c]pyridin-2-yl)-1H-indazol-5-yl)pyridin-3-yl)butanamide] | 95 | 2220 | 4.1 |  | 39.7 | 
456 | 963 | 900 | 2960 | CCNCc1cncc(-c2ccc3[nH]nc(-c4cc5c(N6CCCCC6)nccc5[nH]4)c3c2)c1 [Compound 174, N-((5-(3-(4-(Piperidin-1-yl)-1H-pyrrolo[3,2-c]pyridin-2-yl)-1H-indazol-5-yl)pyridin-3-yl)methyl)ethanamine] | 301 | 1460 |  |  |  | 
86 | 562 | 100 | 146 | Nc1cncc(-c2ccc3[nH]nc(-c4cc5c(-c6cccnc6)nccc5[nH]4)c3c2)c1 [Compound 87, 5-(3-(4-(Pyridin-3-yl)-1H-pyrrolo[3,2-c]pyridin-2-yl)-1H-indazol-5-yl)pyridin-3-amine] | 178 | 113 |  |  |  | 
78 | 549 | 10 | 418 | O=C(Nc1cncc(-c2ccc3[nH]nc(-c4cc5c(-c6ccccc6F)nccc5[nH]4)c3c2)c1)C1CCCC1 [Compound 78, N-(5-(3-(4-(2-Fluorophenyl)-1H-pyrrolo[3,2-c]pyridin-2-yl)-1H-indazol-5-yl)pyridin-3-yl)cyclopentanecarboxamide] | 71 | 841 |  |  |  | 
48 | 296 | 10 | 445 | CCC(=O)Nc1cncc(-c2ccc3[nH]nc(-c4cc5c(N6CCCCC6)nccc5[nH]4)c3c2)c1 [Compound 169, N-(5-(3-(4-(Piperidin-1-yl)-1H-pyrrolo[3,2-c]pyridin-2-yl)-1H-indazol-5-yl)pyridin-3-yl)propionamide] | 244 | 149 |  |  |  | 
40 | 555 | 10 | 111 | O=C(Nc1cncc(-c2ccc3[nH]nc(-c4cc5c(-c6cccnc6)nccc5[nH]4)c3c2)c1)C1CCC1 [Compound 105, N-(5-(3-(4-(Pyridin-3-yl)-1H-pyrrolo[3,2-c]pyridin-2-yl)-1H-indazol-5-yl)pyridin-3-yl)cyclobutanecarboxamide] | 172 | 2420 |  |  |  | 
10 | > 10000 |  | 421 | O=C(Nc1cncc(-c2ccc3[nH]nc(-c4cc5c(-c6cccnc6)nccc5[nH]4)c3c2)c1)c1ccccc1 [Compound 95, N-(5-(3-(4-(Pyridin-3-yl)-1H-pyrrolo[3,2-c]pyridin-2-yl)-1H-indazol-5-yl)pyridin-3-yl)benzamide] | 19 | > 10000 | 15.5 | 0 |  | 

— patent publication US10463651B2, “3-(1H-pyrrolo[3,2-C]pyridin-2-YL)-1H-indazoles and therapeutic uses thereof” (Samumed, LLC, priority 2015, dated 2019)
